The values below come from patent US20230038929A1, “Fused Tricyclic Heterocyclic Compounds and Uses Thereof” (Verge Analytics, Inc., priority 2019, published 2023).

The structures appear in SMILES notation. Where a name gives a salt, the structure may show the parent alone.

For this test, the target named is T1, Full length human recombinant PIKFYVE (Homo sapiens, UniProt Q9Y2I7, L932S/Q1183K/Q995L/S1033A/S696N/T998S).
T1 construct: Full length human recombinant PIKFYVE; purchased Carna Biosciences (Kobe, Japan); host or cells: baculovirus expression system (insect cells)
T1 sequence (Q9Y2I7 whole entry S696N/L932S/Q995L/T998S/S1033A/Q1183K): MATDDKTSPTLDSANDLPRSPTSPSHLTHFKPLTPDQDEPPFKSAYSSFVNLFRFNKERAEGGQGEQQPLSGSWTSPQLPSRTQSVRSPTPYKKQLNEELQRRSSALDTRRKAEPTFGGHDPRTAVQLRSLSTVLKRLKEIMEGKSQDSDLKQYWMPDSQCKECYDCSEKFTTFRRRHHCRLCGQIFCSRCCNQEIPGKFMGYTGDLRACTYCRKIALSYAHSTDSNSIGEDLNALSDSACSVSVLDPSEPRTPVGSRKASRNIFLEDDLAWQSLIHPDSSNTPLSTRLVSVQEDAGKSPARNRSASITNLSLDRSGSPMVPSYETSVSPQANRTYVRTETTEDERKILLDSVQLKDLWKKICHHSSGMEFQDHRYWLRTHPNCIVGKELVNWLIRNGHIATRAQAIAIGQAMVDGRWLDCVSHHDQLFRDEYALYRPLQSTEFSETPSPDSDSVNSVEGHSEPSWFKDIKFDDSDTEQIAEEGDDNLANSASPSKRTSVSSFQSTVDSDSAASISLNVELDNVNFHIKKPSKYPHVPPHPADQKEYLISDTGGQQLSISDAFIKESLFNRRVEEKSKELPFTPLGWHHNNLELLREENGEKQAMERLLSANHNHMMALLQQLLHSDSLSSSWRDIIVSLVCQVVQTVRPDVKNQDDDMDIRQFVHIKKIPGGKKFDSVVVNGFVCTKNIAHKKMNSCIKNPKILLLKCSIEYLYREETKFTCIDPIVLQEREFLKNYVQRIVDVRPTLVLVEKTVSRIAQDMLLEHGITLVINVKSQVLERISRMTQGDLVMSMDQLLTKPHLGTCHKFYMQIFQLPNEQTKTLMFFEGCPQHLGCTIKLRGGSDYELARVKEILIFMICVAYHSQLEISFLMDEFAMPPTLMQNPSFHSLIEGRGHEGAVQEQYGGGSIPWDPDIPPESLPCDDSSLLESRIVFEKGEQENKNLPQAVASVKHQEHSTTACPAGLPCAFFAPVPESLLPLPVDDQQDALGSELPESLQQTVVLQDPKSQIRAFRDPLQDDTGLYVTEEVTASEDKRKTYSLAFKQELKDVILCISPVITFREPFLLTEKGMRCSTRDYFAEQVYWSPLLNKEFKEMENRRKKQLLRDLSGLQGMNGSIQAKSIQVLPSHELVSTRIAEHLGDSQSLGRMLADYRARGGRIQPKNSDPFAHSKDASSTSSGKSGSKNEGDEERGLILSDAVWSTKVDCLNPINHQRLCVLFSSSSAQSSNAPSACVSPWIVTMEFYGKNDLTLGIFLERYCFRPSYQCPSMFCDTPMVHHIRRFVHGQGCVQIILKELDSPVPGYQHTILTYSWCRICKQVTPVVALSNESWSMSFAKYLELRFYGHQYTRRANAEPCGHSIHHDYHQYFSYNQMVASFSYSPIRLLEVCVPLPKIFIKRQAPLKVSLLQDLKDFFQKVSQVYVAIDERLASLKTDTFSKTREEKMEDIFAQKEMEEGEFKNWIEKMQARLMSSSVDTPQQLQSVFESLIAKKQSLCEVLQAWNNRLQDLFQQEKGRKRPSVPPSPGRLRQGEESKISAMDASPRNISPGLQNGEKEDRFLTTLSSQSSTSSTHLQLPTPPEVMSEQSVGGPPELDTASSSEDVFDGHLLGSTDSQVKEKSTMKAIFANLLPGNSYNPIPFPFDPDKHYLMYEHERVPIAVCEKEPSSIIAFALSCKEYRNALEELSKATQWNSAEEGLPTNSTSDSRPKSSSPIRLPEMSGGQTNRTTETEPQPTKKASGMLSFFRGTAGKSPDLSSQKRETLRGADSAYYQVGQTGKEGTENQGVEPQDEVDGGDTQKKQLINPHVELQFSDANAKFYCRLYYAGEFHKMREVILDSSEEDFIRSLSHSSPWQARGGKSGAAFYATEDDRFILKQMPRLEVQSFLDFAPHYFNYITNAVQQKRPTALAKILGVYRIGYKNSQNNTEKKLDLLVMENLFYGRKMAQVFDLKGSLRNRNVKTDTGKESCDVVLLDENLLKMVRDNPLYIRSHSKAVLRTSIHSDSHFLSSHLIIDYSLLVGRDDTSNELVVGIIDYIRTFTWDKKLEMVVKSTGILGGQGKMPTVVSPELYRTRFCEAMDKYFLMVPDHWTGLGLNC
Description: Inhibition of PIKfyve (microfluidic electrophoresis kinase assay). To be noted: 2 nM enzyme, 1 μM PI3P, 3 h at room temperature, 12 concentrations; read-out: PIKfyve IC50. The format is biochemical. As to the method:
Biological Example 1: Inhibition of PIKfyve
Full length human recombinant PIKFYVE expressed in baculovirus expression system as N-terminal GST-fusion protein (265 kDa) was obtained from Carna Biosciences (Kobe, Japan). The kinase substrate was prepared by mixing and sonicating fluorescently-labeled phosphatidylinositol 3-phosphate (PI3P) with phospho-L-serine (PS) at a 1:10 ratio in 50 mM HEPES buffer pH7.5.
The kinase reactions were assembled in 384-well plates (Greiner) in a total volume of […] as follows. Kinase protein was pre-diluted in an assay buffer comprising 25 mM HEPES, pH 7.5, 1 mM DTT, 2.5 mM MgCl2, and 2.5 mM MnCl2, and 0.005% Triton X-100, and dispensed into a 384-well plate (10 μL per well). Test compounds were serially pre-diluted in DMSO and added to the protein samples by acoustic dispensing (Labcyte Echo). The concentration of DMSO was equalized to 1% in all samples. All test compounds were tested at 12 concentrations. Apilimod was used as a reference compound and was tested in identical manner in each assay plate. Control samples (0%-inhibition, in the absence of inhibitor, DMSO only) and 100%-inhibition (in the absence of enzyme) were assembled in replicates of four and were used to calculate %-inhibition in the presence of compounds. The reactions were initiated by addition of 10 μL of 2× PI3P/PS substrate supplemented with ATP. The final concentration of enzyme was 2 nM, the final concentration of ATP was […], and the final concentration of PI3P/PS substrate was 1 μM (PI3P). The kinase reactions were allowed to proceed for 3 h at room temperature. Following incubation, the reactions were quenched by addition of […] of termination buffer (100 mM HEPES, pH 7.5, 0.01% Triton X-100, 20 mM EDTA). Terminated plates were analyzed on a microfluidic electrophoresis instrument (Caliper LabChip® 3000, Caliper Life Sciences/Perkin Elmer). The change in the relative fluorescence intensity of the PI(3)P substrate and PI(3,5)P product peaks was measured. The activity in each test sample was determined as the product to sum ratio (PSR): P/(S+P), where P is the peak height of the product, and S is the peak height of the substrate. Percent inhibition (Pinh) was determined using the following equation:
Pinh=(PSR0%inh−PSRcompound)/(PSR0%inh−P100%inh)*100
in which PSRcompound is the product/sum ratio in the presence of compound, PSR0%inh is the product/sum ratio in the absence of compound, and the PSR100%inh is the product/sum ratio in the absence of the enzyme. To determine the ICso of test compounds (50%-inhibition) the %-inh cdata (Pinh versus compound concentration) were fitted by a four-parameter sigmoid dose-response model using XLfit software (IDBS).
Take `FC(F)(F)Oc1cccc(-c2cc(Nc3nc(N4CCOCC4)c4oc5ncccc5c4n3)[nH]n2)c1` [Example 35, 4-morpholino-N-(3-(3-(trifluoromethoxy)phenyl)-1H-pyrazol-5-yl)pyrido[3′,2′:4,5]furo[3,2-d]pyrimidin-2-amine hydrochloride]: the IC50 was determined as 1540 nM.
On to `c1cnc2oc3c(N4CCOCC4)nc(Nc4ccncn4)nc3c2c1` [Example 41, 4-morpholino-N-(pyrimidin-4-yl)pyrido[3′,2′:4,5]furo[3,2-d]pyrimidin-2-amine], for which the IC50 was above 10000 nM.
Regarding `c1cnc(Nc2nc(N3CCOCC3)c3oc4ncccc4c3n2)nc1` [Example 42, 4-morpholino-N-(pyrimidin-2-yl)pyrido[3′,2′:4,5]furo[3,2-d]pyrimidin-2-amine], the IC50 is above 10000 nM.
Turning to `c1ccc(-c2ccc(Nc3nc(N4CCOCC4)c4oc5ncccc5c4n3)cc2)cc1` [Example 44, N-([1,1′-biphenyl]-4-yl)-4-morpholinopyrido[3′,2′:4,5]furo[3,2-d]pyrimidin-2-amine], the half-inhibitory concentration (IC50) was 356 nM.
With `c1ccc(-c2cccc(Nc3nc(N4CCOCC4)c4oc5ncccc5c4n3)c2)cc1` [Example 45, N-([1,1′-biphenyl]-3-yl)-4-morpholinopyrido[3′,2′:4,5]furo[3,2-d]pyrimidin-2-amine] the figure was 3980 nM; with `c1ccc(-c2ccccc2Nc2nc(N3CCOCC3)c3oc4ncccc4c3n2)cc1` [Example 46, N-([1,1′-biphenyl]-2-yl)-4-morpholinopyrido[3′,2′:4,5]furo[3,2-d]pyrimidin-2-amine], 3870 nM.
Next, `Cc1ccccc1-c1cc(Nc2nc(N3CCOCC3)c3oc4ncccc4c3n2)[nH]n1` [Example 48, 4-morpholino-N-(3-(o-tolyl)-1H-pyrazol-5-yl)pyrido[3′,2′:4,5]furo[3,2-d]pyrimidin-2-amine]: 515 nM.
In the case of `Cc1ccc(-c2cc(Nc3nc(N4CCOCC4)c4oc5ncccc5c4n3)[nH]n2)cc1` [Example 50, 4-morpholino-N-(3-(p-tolyl)-1H-pyrazol-5-yl)pyrido[3′,2′:4,5]furo[3,2-d]pyrimidin-2-amine], the IC50 came to 398 nM.
In the case of `Brc1cnc2oc3c(N4CCOCC4)nc(Nc4cc(-c5ccccc5)[nH]n4)nc3c2c1` [Example 51, 8-bromo-4-morpholino-N-(5-phenyl-1H-pyrazol-3-yl)pyrido[3′,2′:4,5]furo[3,2-d]pyrimidin-2-amine], the IC50 amounted to 862 nM.
As for `c1cnc2oc3c(N4CCOCC4)ncnc3c2c1` [Example 52, 4-Morpholinopyrido[3′,2′:4,5]furo[3,2-d]pyrimidine], the IC50 is above 10000 nM.
Turning to `c1cnc2oc3c(N4CCOCC4)nc(Nc4cc(C5CC5)n[nH]4)nc3c2c1` [Example 53, N-(3-cyclopropyl-1H-pyrazol-5-yl)-4-morpholinopyrido[3′,2′:4,5]furo[3,2-d]pyrimidin-2-amine hydrochloride], the IC50 was 2090 nM.
`c1cnc2oc3c(N4CCOCC4)nc(Nc4cc(CC5CC5)n[nH]4)nc3c2c1` [Example 54, N-(3-(cyclopropylmethyl)-1H-pyrazol-5-yl)-4-morpholinopyrido[3′,2′:4,5]furo[3,2-d]pyrimidin-2-amine hydrochloride]: the IC50 amounted to 2600 nM.
On to `FC(F)(F)c1cc(Nc2nc(N3CCOCC3)c3oc4ncccc4c3n2)[nH]n1` [Example 57, 4-morpholino-N-(3-(trifluoromethyl)-1H-pyrazol-5-yl)pyrido[3′,2′:4,5]furo[3,2-d]pyrimidin-2-amine hydrochloride], for which the IC50 is 5900 nM.
Next, `c1ccc(Cc2cc(Nc3nc(N4CCOCC4)c4oc5ncccc5c4n3)[nH]n2)cc1` [Example 58, N-(3-benzyl-1H-pyrazol-5-yl)-4-morpholinopyrido[3′,2′:4,5]furo[3,2-d]pyrimidin-2-amine hydrochloride]: 831 nM; `c1cnc2oc3c(N4CCOCC4)nc(Nc4cc(C5CCCC5)n[nH]4)nc3c2c1` [Example 59, N-(3-cyclopentyl-1H-pyrazol-5-yl)-4-morpholinopyrido[3′,2′:4,5]furo[3,2-d]pyrimidin-2-amine hydrochloride]: 1290 nM.

For orientation: IC50 means the point on the concentration scale where inhibition reaches its midpoint.
